Experiments:
[1] = target: T1, Avi-KRAS G12C (1-169) GppNHp/RAF1 RBD-3×FLAG (52-151) (Homo sapiens, UniProt P01116, G12C); assay: Raf1 RBD-KRAS G12C-GppNHp disruption assay (protein:protein interaction HTRF); assay type: biochemical
T1 construct: Avi-KRAS G12C (1-169) GppNHp; Avi (N)
Summary of the method: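 HTRF measuring RAF1 RBD binding to GppNHp-loaded KRAS G12C (50 nM) in Tris pH 7.5, 100 mM NaCl, 5 mM MgCl2, 10% DMSO. Compound, KRAS, RBD and detection reagents each added sequentially with 1 h room-temperature incubations; 10-point titration; excitation 320 nm, emission 615 nm; activity as % of DMSO; IC50 derived.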

[2] = target: T2, GDP-loaded KRAS4b (amino acids 1-169) G12C/C118S protein (Homo sapiens, UniProt P01116, C118S/G12C); assay: Covalent cysteine 12 modification by MALDI-TOF MS, GDP-loaded KRAS G12C; assay type: binding; details: 15 minutes reaction time point
T2 construct: KRAS4b (amino acids 1-169) G12C/C118S protein; made in house
Summary of the method: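 With several adducts, each species' height is expressed as a fraction of all observed protein peaks, scored on linear-mode spectra. Reactions run at pH 7.3 (HEPES, 150 mM NaCl, 1 mM MgCl2), using 1 μM protein and a 1:2.5 protein:compound ratio, and are sampled after 15 minutes in the dark.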

IC50 [1] | GDP-KRAS G12C percent of modification [2] | SMILES
< 500 nM | A (percent of modification ≥70%) | C=CC(=O)N1CC[C@@H](N(C)c2nc(OC[C@@]34CCCN3C[C@H](F)C4)nc3c(F)c(-c4ccc(F)c5sc(N)c(C#N)c45)c(Cl)cc23)[C@@H]1C (atropisomer, axis not shown) [Compound 68]
500 to 5000 nM | D (percent of modification <10%) | C=CC(=O)N1CC[C@@H](N(C)c2nc(OC[C@@]34CCCN3C[C@H](F)C4)nc3c(F)c(-c4ccc(F)c5sc(N)c(C#N)c45)c(Cl)cc23)[C@@H]1C (atropisomer, axis not shown) [Compound 69]
< 500 nM | B (50≤percent of modification <70%) | C=CC(=O)N1CCC(N(C)c2nc(OC[C@@H]3CCCN3C3CC3)nc3c(F)c(-c4ccc(F)c5sc(N)c(C#N)c45)c(C(F)(F)F)cc23)[C@H]1C (stereo partly shown) [Compound 1]
500 to 5000 nM | B (50≤percent of modification <70%) | C=CC(=O)N1CCC(N(C)c2nc(OC[C@@]34CCCN3C[C@H](F)C4)nc3c(F)c(-c4ccc(F)c5sc(N)c(C#N)c45)c(Cl)cc23)[C@H]1CC (stereo partly shown) [Compound 2]
< 500 nM | C (10%≤percent of modification <50%) | C=CC(=O)N1CCC(N(C)c2nc(OC[C@@]34CCCN3C[C@H](F)C4)nc3c(F)c(-c4ccc(F)c5sc(N)c(C#N)c45)c(C(F)(F)F)cc23)[C@H]1CC (stereo partly shown) [Compound 3]
500 to 5000 nM | C (10%≤percent of modification <50%) | C=CC(=O)N1C[C@H]2C[C@@H]1CN2c1nc(OC[C@@]23CCCN2C[C@H](F)C3)nc2c(F)c(-c3ccc(F)c4sc(N)c(C#N)c34)c(C(F)(F)F)cc12 [Compound 37]
< 500 nM | C (10%≤percent of modification <50%) | C=CC(=O)N1CC[C@@H](N(CC)c2nc(OC[C@@]34CCCN3C[C@H](F)C4)nc3c(F)c(-c4ccc(F)c5sc(N)c(C#N)c45)c(C(F)(F)F)cc23)[C@H]1CC [Compound 39]
500 to 5000 nM | A (percent of modification ≥70%) | C=CC(=O)N1CC[C@@H](N(CC)c2nc(OC[C@@]34CCCN3C[C@H](F)C4)nc3cc(-c4ccc(F)c5sc(N)c(C#N)c45)c(C#N)cc23)[C@@H]1CC [Compound 40]
500 to 5000 nM | A (percent of modification ≥70%) | C=CC(=O)N1CC[C@@H](N(CC)c2nc(OC[C@@]34CCCN3C[C@H](F)C4)nc3cc(-c4ccc(F)c5sc(N)c(C#N)c45)c(F)cc23)[C@@H]1CC [Compound 41]
< 500 nM |  | C=CC(=O)N1CC[C@@H](N(C)c2nc(OC[C@@H]3CCCN3C)nc3c(F)c(-c4ccc(F)c5sc(N)c(C#N)c45)c(Cl)cc23)[C@H]1C [Compound 59]
< 500 nM |  | C=CC(=O)N1CC[C@@H](N(C)c2nc(OC[C@@H]3C[C@@H](F)CN3C)nc3c(F)c(-c4ccc(F)c5sc(N)c(C#N)c45)c(Cl)cc23)[C@H]1C [Compound 61]
< 500 nM |  | C=CC(=O)N1CC[C@@H](N(C)c2nc(OC[C@@H]3CC4(CC4)CN3C)nc3c(F)c(-c4ccc(F)c5sc(N)c(C#N)c45)c(Cl)cc23)[C@H]1C [Compound 64]
< 500 nM |  | C=CC(=O)N1CC[C@@H](N(CC)c2nc(OC[C@@H]3CC4(CC4)CN3C)nc3c(F)c(-c4ccc(F)c5sc(N)c(C#N)c45)c(C(F)(F)F)cc23)[C@H]1C [Compound 65]
< 500 nM |  | C=CC(=O)N1CC[C@@H](N(CC)c2nc(OC[C@@H]3CCCN3C)nc3c(F)c(-c4ccc(F)c5sc(N)c(C#N)c45)c(C(F)(F)F)cc23)[C@H]1C [Compound 66]
< 500 nM |  | C=CC(=O)N1CC[C@@H](N(C)c2nc(OC[C@@H]3C[C@@H](OC)CN3C)nc3c(F)c(-c4ccc(F)c5sc(N)c(C#N)c45)c(Cl)cc23)[C@@H]1C [Compound 79]
< 500 nM |  | C=CC(=O)N1CC[C@@H](N(C)c2nc(OC[C@@H]3CCCN3CC)nc3c(F)c(-c4ccc(F)c5sc(N)c(C#N)c45)c(Cl)cc23)[C@@H]1C [Compound 84]

Source: patent US20260232666A1, “COMPOSITIONS AND METHODS FOR INHIBITION OF RAS” (TheRas, Inc., priority 2023, published 2026)
